Read-outs that look alike come from different tables or passages of the source.
Assays:
human PLK4 = target: T1, human PLK4 (Homo sapiens, UniProt O00444); assay: PLK4 Inhibition Assay (indirect ELISA); assay type: biochemical
T1 construct: amino terminal GST fusion of residues 1-391 of human PLK4; made in house; host or cells: E. coli
T1 sequence (O00444 1-391): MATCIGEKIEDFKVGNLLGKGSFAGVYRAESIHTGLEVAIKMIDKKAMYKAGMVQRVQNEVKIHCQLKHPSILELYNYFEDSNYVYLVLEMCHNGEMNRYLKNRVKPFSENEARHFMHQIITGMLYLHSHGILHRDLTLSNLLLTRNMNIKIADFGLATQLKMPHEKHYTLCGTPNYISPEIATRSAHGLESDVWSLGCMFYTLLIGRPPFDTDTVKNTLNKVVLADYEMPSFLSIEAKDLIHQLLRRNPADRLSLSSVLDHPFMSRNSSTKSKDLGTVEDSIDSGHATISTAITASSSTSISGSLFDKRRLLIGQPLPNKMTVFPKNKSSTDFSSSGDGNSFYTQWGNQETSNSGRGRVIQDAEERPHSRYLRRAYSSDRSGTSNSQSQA
Experimental: The protein was purified from clarified cell extracts after induction at 15° C. overnight using glutathione sepharose, gel permeation chromatography, and ion exchange (Resource Q). The resulting protein was dephosphorylated with lambda phosphatase (NEB cat# P0753), and resolved from the phosphatase using gluthione sepharose. The dephosphorylated GST-PLK4 was stored in aliquots at −80° C. until use.
PLK4 activity was measured using an indirect ELISA detection system. […] The colourimetric reaction was allowed to continue for 5 minutes, followed by addition of stop solution (0.5 N sulphuric acid), and quantified by detection at 450 nm with either a monochromatic or filter based plate reader (Molecular Devices M5 or Beckman DTX880, respectively).
Compounds were pre-incubated in the presence of enzyme for 15 minutes prior to addition of ATP and the activity remaining quantified using the above described activity assay. […] The IC50 value was determined using a non-linear 4 point logistic curve fit (XLfit4, IDBS) with the formula; (A+(B/(1+((x/C){grave over ( )}D)))), where A=background value, B=range, C=inflection point, D=curve fit parameter.

Aurora B = target: T2, Aurora B (Homo sapiens, UniProt Q96GD4); assay: Aurora B Inhibition Assay (Z-Lyte); assay type: biochemical; settings: 128 μM ATP; read-out: Aurora B IC50 Ranges
T2 construct: purchased Invitrogen PV3970
Experimental: Aurora B inhibition was determined using the Z-Lyte assay kit from Invitrogen. […] The % inhibition values were determined according to the manufacturer's directions and IC50 values were obtained using a non-linear 4 point logistic curve fit (XLfit4, IDBS)

[1] = test system: A549 lung cancer cell line; assay: Cell growth inhibition, Sulforhodamine B assay (SRB); assay type: cell-based; settings: Homo sapiens, read-out: Cell Line GI50 Range A-549
Experimental: (§1) The cells were cultured for 5 days before the Sulforhodamine B assay (SRB) was performed to determine the compound's cell growth inhibition activity.
(§2) Sulforhodamine B (purchased from Sigma, Oakville, ON, Canada) is a water-soluble dye that binds to the basic amino acids of the cellular proteins. Thus, colorimetric measurement of the bound dye provides an estimate of the total protein mass that is related to the cell number. the cells are fixed in situ by gently aspirating off the culture media and adding 50 μl ice cold 10% Trichloroacetic Acid (TCA) per well and incubate at 4° C. for 30-60 min, The plates are washed with water five times and allowed to air dry for 5 min. […] Following staining, plates are washed four times with 1% acetic acid to remove unbound dye and then allowed to air dry for 5 min. […] Absorbance is read at 570 nm.
(§3) The percentage (%) of relative growth inhibition was calculated by comparing to DMSO treated only cells (100%). GI50's were determined for compounds with cytotoxic activity. The GI50 was calculated using GraphPad PRISM software (GraphPad Software, Inc., San Diego, Calif., USA).

[2] = test system: HCC1954 basal breast cancer cell line; assay: as above; assay type: cell-based; settings: Homo sapiens, 5 days culture, SRB
Experimental: as §1, §2, §3

[3] = test system: MCF-7 luminal breast cancer cell line; assay: as above; assay type: cell-based; settings: Homo sapiens, MCF7, 120 h, read-out: Cell Line GI50 Range MCF-7
Experimental: as §1, §2, §3

[4] = test system: MDA-MB-468 basal breast cancer cell line; assay: as above; assay type: cell-based; settings: Homo sapiens, 5 days culture, SRB
Experimental: as §1, §2, §3

[5] = test system: SW620 colon cancer cell line; assay: as above; assay type: cell-based; settings: Homo sapiens, SW-620, 120 h, read-out: Cell Line GI50 Range SW-620
Experimental: as §1, §2, §3

Aurora A = target: T3, Aurora A (Homo sapiens, UniProt O14965); assay: Aurora A Inhibition Assay (Z-Lyte); assay type: biochemical; settings: 1 μM compound; 20 μM ATP; read-out: Aurora A relative inhibition percentage at a dose of 1 μM
T3 construct: purchased Invitrogen PV3612
T3 sequence (O14965 1-403): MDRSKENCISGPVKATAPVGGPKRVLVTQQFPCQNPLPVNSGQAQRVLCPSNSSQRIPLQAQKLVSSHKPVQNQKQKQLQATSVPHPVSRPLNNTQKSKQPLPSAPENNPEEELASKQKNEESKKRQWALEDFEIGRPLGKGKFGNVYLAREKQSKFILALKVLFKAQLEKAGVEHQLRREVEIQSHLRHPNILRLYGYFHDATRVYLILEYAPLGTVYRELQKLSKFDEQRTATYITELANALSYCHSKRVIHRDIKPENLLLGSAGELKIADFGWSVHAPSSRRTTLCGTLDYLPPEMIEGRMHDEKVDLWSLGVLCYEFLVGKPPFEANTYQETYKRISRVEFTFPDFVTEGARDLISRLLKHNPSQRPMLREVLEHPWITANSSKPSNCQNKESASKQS
Experimental: Aurora A inhibition was determined using the Z-Lyte assay kit from Invitrogen. The assay was performed using the recommended manufacturer's instructions with 20 μM ATP and 12 nM Aurora A (Invitrogen cat # PV3612). The % inhibition values were determined according to the manufacturer's directions and IC50 values were obtained using a non-linear 4 point logistic curve fit (XLfit4, IDBS)

[6] = 15 μM ATP, read-out: PLK4 IC50 Ranges
[7] = 120 h, A549 lung cancer cell line, 5 days culture, SRB
[8] = 120 h, HCC1954 basal breast cancer cell line, read-out: Cell Line GI50 Range HCC-1954
[9] = MCF-7 luminal breast cancer cell line, 5 days culture, SRB
[10] = 120 h, MDA-MB-468 basal breast cancer cell line, read-out: Cell Line GI50 Range MDA-MB-468
[11] = SW620 colon cancer cell line, 5 days culture, SRB
[12] = HCC1954, 120 h, read-out: Cell Line GI50 Range HCC-1954, HCC1954 basal breast cancer cell line
[13] = MDA-MB-468, 120 h, read-out: Cell Line GI50 Range MDA-MB-468, MDA-MB-468 basal breast cancer cell line
[14] = HCC1954, 120 h, HCC1954 basal breast cancer cell line, read-out: Cell Line GI50 Range HCC-1954

T2 sequence (Q96GD4 whole entry): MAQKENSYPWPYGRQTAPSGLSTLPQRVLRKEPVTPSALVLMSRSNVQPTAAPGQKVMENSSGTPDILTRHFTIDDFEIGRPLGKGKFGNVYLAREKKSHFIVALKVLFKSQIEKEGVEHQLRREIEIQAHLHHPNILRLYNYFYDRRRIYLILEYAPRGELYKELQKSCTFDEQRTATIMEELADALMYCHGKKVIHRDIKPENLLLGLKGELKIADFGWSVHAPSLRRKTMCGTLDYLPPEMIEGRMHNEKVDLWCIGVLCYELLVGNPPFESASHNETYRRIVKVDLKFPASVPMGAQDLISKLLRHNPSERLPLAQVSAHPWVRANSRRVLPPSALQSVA

COc1ccc2c(c1)[C@@]1(C[C@@H]1c1ccc3c(-c4ccc(N5CCNCC5)nc4)n[nH]c3c1)C(=O)N2 (racemic) [Example A21, 4-(5-(6-((1R*,2S*)-5′-Methoxy-2′-oxospiro[cyclopropane-1,3′-indoline]-2-yl)-1H-indazol-3-yl)pyridinium-2-yl)piperazine bis(2,2,2-trifluoroacetate)]
IC50 (human PLK4; [6]): < 100 nM
IC50 (Aurora B): < 100 nM
GI50 [1, 7]: 1000 to 10000 nM
GI50 [2, 8]: > 10000 nM
GI50 [3, 9]: < 100 nM
GI50 [4, 10]: 100 to 1000 nM
GI50 [5, 11]: 1000 to 10000 nM

COc1ccc2c(c1)[C@@]1(C[C@@H]1c1ccc3c(-c4cccc(CCO)c4)n[nH]c3c1)C(=O)N2 (racemic) [Example A46, (1R*,2S*)-2-(3-(3-(2-hydroxethyl)phenyl)-1H-indazol-6-yl)-5′-methoxy spiro[cyclopropane-1,3′-indolin]-2′-one]
IC50 (human PLK4; [6]): < 100 nM
GI50 [1, 7]: 1000 to 10000 nM
GI50 [2, 8]: > 10000 nM
GI50 [3, 9]: 1000 to 10000 nM
GI50 [4, 10]: 1000 to 10000 nM
GI50 [5, 11]: > 10000 nM

COc1ccc2c(c1)[C@@]1(C[C@@H]1c1ccc3c(-c4ccc(N5CCNCC5)cc4)n[nH]c3c1)C(=O)N2 (racemic) [Example A48, (1R*,2S*)-5′-methoxy-2-(3-(4-(piperazin-1-yl)phenyl)-1H-indazol-6-yl)spiro[cyclopropane-1,3′-indolin]-2′-one 2,2,2-trifluoroacetate]
IC50 (human PLK4): < 100 nM
inhibition at 1 µM (Aurora A): < 50%
IC50 (Aurora B): < 100 nM
GI50 ([1]; A549, 120 h): < 100 nM
GI50 [2, 12]: 1000 to 10000 nM
GI50 [3]: < 100 nM
GI50 [4, 13]: < 100 nM
GI50 [5]: 1000 to 10000 nM

COc1ccc2c(c1)[C@@]1(C[C@@H]1c1ccc3c(-c4ccc(N5CCC(N(C)C)CC5)cc4)n[nH]c3c1)C(=O)N2 (racemic) [Example A119, (1R*,2S*)-2-(3-(4-(4-(dimethlamino)piperidin-yl)phenyl)-1H-indazol-6-yl)-5′-methoxyspiro[cyclopropane-1,3′-indolin]-2′-one 2,2,2-trifluoroacetate]
IC50 (human PLK4; [6]): < 100 nM
IC50 (Aurora B): < 100 nM
GI50 [1, 7]: < 100 nM
GI50 [2, 14]: 100 to 1000 nM
GI50 [3, 9]: < 100 nM
GI50 [4, 10]: < 100 nM
GI50 [5, 11]: < 100 nM

CN1CCN(c2ccc(-c3n[nH]c4cc([C@@H]5C[C@@]56C(=O)Nc5ccc(C(F)(F)F)cc56)ccc34)cc2)CC1 (racemic) [Example A170, (1R*,2S*)-2-(3-(4-(4-methylpiperazin-1-yl)phenyl)-1H-indazol-6-yl)-5′-(trifluoromethyl)spiro[cyclopropane-1,3′-indolin]-2′-one 2,2,2-trifluoroacetate]
IC50 (human PLK4; [6]): 100 to 1000 nM

COc1ccc2c(c1)[C@@]1(C[C@@H]1c1ccc3c(/C=C/c4csc(CN(C)C)c4)n[nH]c3c1)C(=O)N2 (racemic) [Example A181, (1R*,2S*)-2-(3-((E)-2-(5-((dimethylamino)methyl)thiophen-3-yl)vinyl)-1H-indazol-6-yl)-5′-methoxyspiro[cyclopropane-1,3′-indolin]-2′-one 2,2,2-trifluoro acetate]
IC50 (human PLK4; [6]): < 100 nM
IC50 (Aurora B): < 100 nM
GI50 [1, 7]: < 100 nM
GI50 [2, 14]: 100 to 1000 nM
GI50 [3, 9]: < 100 nM
GI50 [4, 10]: < 100 nM
GI50 [5, 11]: < 100 nM

O=C1Nc2ccccc2[C@]12C[C@H]2c1ccc2c(I)n[nH]c2c1 (relative stereo) [Example A9, (1R*,2S*)-2-(3-iodo-1H-indazol-6-yl)spiro[cyclopropane-1,3′-indolin]-2′-one]
IC50 (human PLK4): 100 to 1000 nM

COc1ccc2c(c1)[C@]1(C[C@H]1c1ccc3c(/C=C/c4cc(F)c(CN(C)C)c(F)c4)n[nH]c3c1)C(=O)N2 (relative stereo) [Example A215, (1R*,2 S*)-(E)-2-(3-(4-((dimethylamino)methyl)-3,5-difluorostyryl)-1H-indazol-6-yl)-5′-methoxyspiro[cyclopropane-1,3′-indolin]-2′-one 2,2,2-trifluoro acetate]
IC50 (human PLK4; [6]): < 100 nM
IC50 (Aurora B): < 100 nM

COc1ccc2c(c1)[C@]1(C[C@H]1c1ccc3c(-c4ccc(N5CCNCC5)cc4)n[nH]c3c1)C(=O)N2 [Example A49, (1R,2S)-5′-methoxy-2-(3-(4-(piperazin-1-yl)phenyl)-1H-indazol-6-yl)spiro[cyclopropane-1,3′-indolin]-2′-oneone 2,2,2-trifluoroacetate]
IC50 (human PLK4): < 100 nM
inhibition at 1 µM (Aurora A): < 50%
IC50 (Aurora B): < 100 nM
GI50 ([1]; A549, 120 h): < 100 nM
GI50 [2, 12]: 1000 to 10000 nM
GI50 [3]: < 100 nM
GI50 [4, 13]: < 100 nM
GI50 [5]: 1000 to 10000 nM
